Test results taken from ChEMBL document CHEMBL1201862, “PubChem BioAssay data set” (2004).
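Method: 48-hour compound exposure of cells in 96-well plates, five concentrations, linear interpolation of endpoints. GI50 = concentration required for 50% inhibition of growth.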 Calls of active or inactive are those of the source. Rule as the data show it: active = GI50 up to about 1.1 µM and inactive = higher.

Key:
Test in all cases: NCI anticancer screen, dose series, 48 h
DMS-114 = system: DMS-114
DMS-273 = system: DMS-273
HOP-18 = system: HOP-18
LXFL 529 = system: LXFL 529
M19-MEL = system: M19-MEL
RXF 631 = system: RXF 631
SNB-78 = system: SNB-78
DLD-1 = system: DLD-1
XF498 = system: XF498

SMILES | GI50 (DMS-114) | GI50 (DMS-273) | GI50 (HOP-18) | GI50 (LXFL 529) | GI50 (M19-MEL) | GI50 (RXF 631) | GI50 (SNB-78) | GI50 (DLD-1) | GI50 (XF498)
COC(=O)C(=O)C(C(=O)C(=O)Nc1cc(C)ccc1C)c1nc2ccc(C(=O)c3ccccc3)cc2nc1O (configuration not stated) | 51.4 µM (inactive) | 74.3 µM (inactive) | 23.8 µM (inactive) | 43.5 µM (inactive) | 88.7 µM (inactive) | > 100 µM (inactive) | 58.6 µM (inactive) | – | –
CC(C)N1CCOC(c2ccc(O)c(O)c2)C1 (configuration not stated) | > 100 µM (inactive) | > 100 µM (inactive) | – | > 100 µM (inactive) | > 100 µM (inactive) | > 100 µM (inactive) | > 100 µM (inactive) | > 100 µM (inactive) | > 100 µM (inactive)
CC(C)(C)[C@H]1CO[C@]2(c3ccccc3)[C@@H]3C[C@@H]3C(=O)N12 | > 100 µM (inactive) | > 100 µM (inactive) | – | > 100 µM (inactive) | > 100 µM (inactive) | – | – | > 100 µM (inactive) | > 100 µM (inactive)
NC(=S)N/N=C1/C(=O)N(c2ccc(Cl)cc2Cl)C(=O)C(=O)C1c1nc2ccccc2s1 (configuration not stated) | > 100 µM (inactive) | > 100 µM (inactive) | 98.4 µM (inactive) | > 100 µM (inactive) | > 100 µM (inactive) | – | > 100 µM (inactive) | – | > 100 µM (inactive)
O=C1NC(=O)C2C1c1[nH]c3ccccc3c1C1CCCC12 (configuration not stated) | 1.35 µM (inactive) | 0.481 µM (active) | 25.3 µM (inactive) | 6.37 µM (inactive) | 0.971 µM (active) | 3.44 µM (inactive) | 6.35 µM (inactive) | 3.87 µM (inactive) | 0.538 µM (active)
COc1cc(Cl)cc(N(O)C(C)=O)c1OCc1ccccc1 | 25.6 µM (inactive) | 49.9 µM (inactive) | > 100 µM (inactive) | 75.9 µM (inactive) | 70.8 µM (inactive) | – | > 100 µM (inactive) | > 100 µM (inactive) | 36.9 µM (inactive)
Cc1ccc(NC(=O)C(=O)C2C(=O)NC(=O)NC2=O)c(C)c1 | > 100 µM (inactive) | > 100 µM (inactive) | > 100 µM (inactive) | > 100 µM (inactive) | > 100 µM (inactive) | > 100 µM (inactive) | > 100 µM (inactive) | > 100 µM (inactive) | –
C[N+](C)(C)CC(=O)N/N=C(\C(=O)Nc1ccc(Cl)cc1)C1C(=O)N(c2ccccc2)N=C1N (configuration not stated) | > 100 µM (inactive) | > 100 µM (inactive) | – | > 100 µM (inactive) | > 100 µM (inactive) | – | > 100 µM (inactive) | > 100 µM (inactive) | –
CN(C(=O)C12C3C4C1C1C2C3C41I)C(C)(C)C (configuration not stated) | > 59 µM (inactive) | 47 µM (inactive) | > 100 µM (inactive) | > 87.1 µM (inactive) | > 100 µM (inactive) | 53.2 µM (inactive) | > 100 µM (inactive) | > 100 µM (inactive) | > 61.9 µM (inactive)
Cc1nc(N)sc1C(=O)/C=C/c1ccc([N+](=O)[O-])cc1 | > 100 µM (inactive) | > 100 µM (inactive) | > 100 µM (inactive) | – | > 100 µM (inactive) | – | > 100 µM (inactive) | > 100 µM (inactive) | –
Nc1ccc2ncc(NCc3ccc(F)cc3)nc2c1 | 49 µM (inactive) | > 100 µM (inactive) | > 100 µM (inactive) | > 100 µM (inactive) | > 100 µM (inactive) | – | > 100 µM (inactive) | > 100 µM (inactive) | 19.5 µM (inactive)
CN(C)/C=C/C(=CC=[N+](C)C)/C=C/N(C)C.[O-][Cl+3]([O-])([O-])[O-] | – | > 100 µM (inactive) | – | > 100 µM (inactive) | – | > 100 µM (inactive) | > 100 µM (inactive) | > 100 µM (inactive) | > 100 µM (inactive)
CCOC(=O)C1(C(=O)OCC)C(C(C)(C)C)=C(C)c2ccccc21 | 11.5 µM (inactive) | 12.1 µM (inactive) | 29.1 µM (inactive) | 11.6 µM (inactive) | 14.1 µM (inactive) | 13.7 µM (inactive) | – | 11.8 µM (inactive) | 12.6 µM (inactive)
C=C1CC(CC(=O)C(C)CC2CC(=C)C(=O)O2)OC1=O (configuration not stated) | 21.6 µM (inactive) | 23.2 µM (inactive) | 22.4 µM (inactive) | 12.8 µM (inactive) | 16.3 µM (inactive) | 46.3 µM (inactive) | 17.3 µM (inactive) | 14.4 µM (inactive) | 23.8 µM (inactive)
CCOC(=O)c1c2ccc(/C=C/C(=O)OC)ccc-2c(C(=O)OCC)c1N | > 100 µM (inactive) | > 100 µM (inactive) | > 100 µM (inactive) | > 100 µM (inactive) | > 100 µM (inactive) | – | – | > 100 µM (inactive) | –
CN(C)CC1CCC(CN(C)C)C1=NO (configuration not stated) | > 100 µM (inactive) | > 100 µM (inactive) | > 100 µM (inactive) | > 100 µM (inactive) | > 100 µM (inactive) | – | > 100 µM (inactive) | > 100 µM (inactive) | –
NC(=S)N/N=C/C(=C/Nc1ccccc1)[N+](=O)[O-] | 15.7 µM (inactive) | – | – | > 100 µM (inactive) | > 100 µM (inactive) | – | – | > 100 µM (inactive) | > 100 µM (inactive)
CSC(=Nc1nnc(-c2ccc([N+](=O)[O-])cc2)s1)SC | 25.9 µM (inactive) | 41.1 µM (inactive) | 5.64 µM (inactive) | 37 µM (inactive) | > 100 µM (inactive) | – | 12.4 µM (inactive) | 34.7 µM (inactive) | 21.6 µM (inactive)
O=C1C[C@H]2CCCN2[C@@H](c2ccccc2)C1 | – | > 100 µM (inactive) | > 100 µM (inactive) | > 100 µM (inactive) | > 100 µM (inactive) | > 100 µM (inactive) | > 100 µM (inactive) | – | > 100 µM (inactive)
CC(C)NCCCC(C)Nc1ccnc2ccc3nn(C)nc3c12 (configuration not stated) | 61.7 µM (inactive) | 41.7 µM (inactive) | 9.4 µM (inactive) | 57.1 µM (inactive) | 84.9 µM (inactive) | – | 43.1 µM (inactive) | 71.9 µM (inactive) | > 100 µM (inactive)
O=C(Nc1cc(Cl)cc(Cl)c1)/C(Cc1nc2ccccc2nc1O)=N/NC(=O)c1ccncc1 | > 100 µM (inactive) | – | – | > 100 µM (inactive) | > 100 µM (inactive) | > 100 µM (inactive) | > 100 µM (inactive) | > 100 µM (inactive) | –
O=C(/C=C/c1ccc(Cl)cc1)c1ccc(Cl)c(Cl)c1 | 23.6 µM (inactive) | 40.9 µM (inactive) | – | 18.9 µM (inactive) | 27.8 µM (inactive) | – | > 10 µM (inactive) | 15 µM (inactive) | –
CCCCCCCC(=O)OCC1OC(n2cc(F)c(=O)[nH]c2=O)C(NC(=O)OCc2ccccc2)C(O)C1O (configuration not stated) | 41.6 µM (inactive) | 40 µM (inactive) | – | 31.3 µM (inactive) | 56.8 µM (inactive) | – | > 100 µM (inactive) | – | –
COC1(C)Cc2c(c(C)c(O)c3c2C(=O)C=C(Cl)C3=O)O1 (configuration not stated) | 28 µM (inactive) | > 64.6 µM (inactive) | – | 15.1 µM (inactive) | 16.4 µM (inactive) | – | – | 15.7 µM (inactive) | 23.6 µM (inactive)
COc1cc2c(cn1)[nH]c1ccccc12 | 81.5 µM (inactive) | > 100 µM (inactive) | > 100 µM (inactive) | 72.3 µM (inactive) | – | > 100 µM (inactive) | 59.3 µM (inactive) | > 100 µM (inactive) | 35.8 µM (inactive)
